Measurements: US9216960B2, “Spiro[2.4]heptanes for treatment of Flaviviridae infections” (University of Georgia Research Foundation, Inc., priority 2012, dated 2015)

Tests used:
[1] = test system: hepatitis C virus genotype 1A; settings: Hu7 RNA replicon assay; cited from earlier work
[2] = test system: hepatitis C virus genotype 1B; settings: Hu7 RNA replicon assay; cited from earlier work

O=c1ccn([C@H]2[C@H](O)[C@H](O)[C@@H](CO)C23CC3)c(=O)[nH]1
melting point: 114 to 116 °C

Nc1ncnc2c1ncn2[C@H]1[C@H](O)[C@H](O)[C@@H](CO)C12CC2 [cyclopropy-spirocarbocyclic adenosine, (4R,5S,6R,7R)-4-(6-amino-9H-pur-9-yl)-7-(hydroxymethyl)spiro[2.4]heptane-5,6 diol]
EC50 [1]: 273 nM
EC50 [2]: 368 nM
